From publication PMC9780888, “4-Isobutylmethcathinone—A Novel Synthetic Cathinone with High In Vitro Cytotoxicity and Strong Receptor Binding Preference of Enantiomers” (Pharmaceuticals, 2022)

Biological target: T1, dopamine receptor DAR1 (Homo sapiens, UniProt P21728)
T1 construct: host or cells: HTLA (HEK 293-derived)
Experiment: PRESTO-Tango β-arrestin 2 recruitment assay, DAR1
Assay type: cell-based
Details: HTLA cells
From the text: However, binding to a specific receptor/transporter and, thus, the mechanism of action of a given cathinone always depends on the specific structure of the evaluated compound [37]. In this study, the binding activity of IBMcat and its enantiomers was verified by PRESTO-Tango (parallel receptor expression and screening via transcriptional output, with transcriptional activation following arrestin-2 translocation) assay using the HTLA cell line stably producing β-arrestin-2 in a fusion with TEV and luciferase production driven by tTA. […] The transcription factor then translocates to the cell nucleus, in which it triggers the transcription of the target gene for luciferase production which can be determined by the light emitted from luciferin conversion to oxyluciferin. Here, the pronounced luminescence was recorded for all DAR1-4 types in HTLA cells treated with IBMCat and its enantiomers (Figure 8). […]
The transfected HTLA cells were incubated for 24 h, and then 1 × 10^4 cells were seeded per well of a white 96-well clear bottom plate (Brand, Germany) in 40 μL of DMEM with 1% charcoal-stripped FBS (Thermo Fisher Scientific, USA). […] After 5 min., the luminescence was measured using a multi-mode microplate reader SpectraMax iD5 (Molecular Devices, San Jose, CA, USA) measuring the entire wavelength spectrum. All samples were measured in quadruplicates. […]

T1 sequence (P21728 whole entry): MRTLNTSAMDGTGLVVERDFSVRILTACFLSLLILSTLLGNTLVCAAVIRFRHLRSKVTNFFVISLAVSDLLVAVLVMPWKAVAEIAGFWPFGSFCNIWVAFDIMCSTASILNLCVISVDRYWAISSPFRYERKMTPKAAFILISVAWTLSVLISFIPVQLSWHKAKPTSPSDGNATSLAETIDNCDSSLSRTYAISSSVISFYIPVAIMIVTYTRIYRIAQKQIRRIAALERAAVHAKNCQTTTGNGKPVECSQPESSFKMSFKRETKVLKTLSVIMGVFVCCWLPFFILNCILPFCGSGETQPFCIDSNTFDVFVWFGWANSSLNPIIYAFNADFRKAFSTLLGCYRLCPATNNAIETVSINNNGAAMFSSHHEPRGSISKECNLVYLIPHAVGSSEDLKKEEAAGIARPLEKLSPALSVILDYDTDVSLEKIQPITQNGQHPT

Compound: CNC(C)C(=O)c1ccc(CC(C)C)cc1.Cl (centres unmarked) [IBMcat, 4-isobutylmethcathinone hydrochloride]
- effect on DAR1 (increase in RLU with increasing concentration) (0-500 nM): acted as agonists
- concentration from which no further increase in RLU was detected (maximum effective concentration) (DAR1): 10 nM
